Laboratory results: patent US6191130A, “Cyclohexane derivatives difunctionalised in 1,4 as ligands of 5T H1A receptors” (Pierre Fabre Medicament, priority 1997, dated 2001)
Where two headings read alike, the source gives them in different places.

Tests used:
5-HT1A receptor [1] = biological target: T1, 5-HT1A receptor (Rattus norvegicus, UniProt P19327); test: 5-HT syndrome (serotoninergic syndrome) in the male rat; type: in vivo, male rat (Sprague-Dawley); set-up: carried out with the male rat (Sprague-Dawley); from tissue; host or cells: whole living rat (Sprague-Dawley); settings: po
T1 sequence (P19327 1-422): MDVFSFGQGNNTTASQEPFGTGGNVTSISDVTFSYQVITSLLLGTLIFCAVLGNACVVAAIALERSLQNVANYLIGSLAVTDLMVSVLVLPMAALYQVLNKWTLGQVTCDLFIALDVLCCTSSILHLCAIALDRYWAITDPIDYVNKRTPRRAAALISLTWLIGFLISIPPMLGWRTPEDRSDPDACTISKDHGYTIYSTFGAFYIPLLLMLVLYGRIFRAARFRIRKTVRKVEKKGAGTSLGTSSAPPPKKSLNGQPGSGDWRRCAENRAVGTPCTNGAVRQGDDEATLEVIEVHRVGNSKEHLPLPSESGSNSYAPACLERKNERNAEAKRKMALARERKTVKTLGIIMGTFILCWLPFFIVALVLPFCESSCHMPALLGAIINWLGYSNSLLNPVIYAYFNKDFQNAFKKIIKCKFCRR
Method: The central activity of the compounds of the invention was evaluated by their ability to provoke the 5-HT syndrome, which is characterized by:
an alternating bending and stretching of the forepaws (reciprocal fore-paw treading: FPT)
the retraction of the lower lip (lower lip retraction: LLR)
a position or the ventral surface of the animal is in contact with the ground and the hind paws extended (flat body posture: FBP).
The experiments on the evaluation of the 5-HT syndrome are carried out with the male rat (Sprague-Dawley) according to the technique described by F. C. Colpaert et al. (Drug. Dev. Res., 26, 21-48, 1992) and M. S. Kleven et al. (J.P.E.T., 282, 747-759, 1997).

5-HT1A receptor [2] = biological target: T1, 5-HT1A receptor; test: Binding to the 5-HT1A receptor (displacement of [3H]8-OH-DPAT, rat cortex); set-up: Brains from male Sprague-Dawley 180-200 g rats; tissue Iffa Credo, France (animals); host or cells: rat brain cortex; species or system male Sprague-Dawley rat; settings: read-out: pKi 5-HT1A (converted)
Method: (§1) Binding to the 5-HT1A, D2 dopaminergic and α1-adrenergic receptors:
(§2) Brains from male Sprague-Dawley 180-200 g rats [Ico: OFA SD (I.O.P.S. Caw); Iffa Credo, France], maintained at -70° C., were used in all the studies.
(§3) The affinity of the products for the various receptors was determined by displacement of radioactive ligands under the conditions summarized in Table 1.
(§4) The reaction is halted by rapid filtration, under vacuum, through Whatman GF/B filters and the tubes are rinsed with 2×5 ml of Tris-HCl 50 mM, pH 7.4, buffer at 25° C. The radioactivity collected on the filter is analyzed by liquid scintillation after addition of 4 ml of liquid scintillant (Emulsifier Safe, Packard). All the experiments are carried out in triplicate.
(§5) The inhibition constants (Ki) of the products are estimated from the displacement experimentations by using the EBDA (equilibrium binding data analysis) Radlig Version 4 non linear regression program (Biosoft, Cambridge, UK; McPherson, 1985).
(§6) The pKi (-log Ki) values are given in the form of the mean±SEM of at least 3 experimentations (Table 2).
10 A Assie and Koek, Eur. J.

α1-adrenergic receptor = test: Binding to the α1-adrenergic receptor (displacement of [3H]prazosin, rat cortex); set-up: species or system male Sprague-Dawley rat; settings: mean of at least 3 experimentations
Method: as §1, §2, §3, §4, §6

[3] = Antidepressant activity: Forced swimming test; type: in vivo; settings: percentage of animals with significant decrease (p<0.05) in immobility time vs control; po
D2 dopaminergic receptor = biological target: T2, D2 dopaminergic receptor (Rattus norvegicus, UniProt P61169); test: Binding to the D2 dopaminergic receptor (displacement of [3H]YM-09151-2, rat striatum); set-up: species or system male Sprague-Dawley rat; settings: read-out: pKi D2 (converted)
T2 construct: Brains from male Sprague-Dawley 180-200 g rats; tissue Iffa Credo, France (animals); host or cells: rat brain striatum
Method: as §1, §2, §3, §4, §5, §6

[4] = FBP, read-out: ED50 FBP (flat body posture)
[5] = FPT, read-out: ED50 FPT (reciprocal fore-paw treading)
[6] = LLR, read-out: ED50 LLR (lower lip retraction)

T2 sequence (P61169 whole entry): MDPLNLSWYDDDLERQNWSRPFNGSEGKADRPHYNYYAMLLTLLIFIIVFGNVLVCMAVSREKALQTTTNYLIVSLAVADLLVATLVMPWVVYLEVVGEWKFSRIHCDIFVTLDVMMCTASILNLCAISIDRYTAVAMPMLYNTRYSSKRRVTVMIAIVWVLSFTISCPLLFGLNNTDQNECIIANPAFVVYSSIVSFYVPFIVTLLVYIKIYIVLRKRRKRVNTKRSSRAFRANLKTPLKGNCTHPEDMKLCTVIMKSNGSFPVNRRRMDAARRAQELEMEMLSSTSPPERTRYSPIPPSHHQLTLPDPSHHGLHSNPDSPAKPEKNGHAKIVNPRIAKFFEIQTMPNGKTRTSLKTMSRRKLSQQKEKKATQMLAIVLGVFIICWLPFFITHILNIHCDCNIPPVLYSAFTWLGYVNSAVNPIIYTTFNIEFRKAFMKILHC

SMILES	ED50 (5-HT1A receptor [1]; [4])	ED50 (5-HT1A receptor [1]; [5])	ED50 (5-HT1A receptor [1]; [6])	Ki (5-HT1A receptor [2])	pKi α1 (α1-adrenergic receptor)	Ki (D2 dopaminergic receptor)	ED50 [3]
Cn1ncc(O[C@H]2CC[C@H](NCC3COc4ccccc4O3)CC2)nc1=O (relative stereo) [Compound 16, Trans-5-[4-[(2,3-Dihydrobenzo[1,4]Dioxin-2-Ylmethyl)Amino]Cyclohexyloxy]-2-Methyl-2H-[1,2,4]Triazin-3-One]	0.31 mg/kg	> 2.5 mg/kg	0.08 mg/kg	0.166 nM	–	–	–
O=C1CC2(CCCC2)CC(=O)N1CCCCN1CCN(c2ncccn2)CC1 [Buspirone, reference compound]	–	> 40 mg/kg	2.5 mg/kg	–	6.19	–	> 160 mg/kg
Cn1ncc(O[C@H]2CC[C@H](N3CCN(c4ncccn4)CC3)CC2)nc1=O [Compound 9, trans-2-Methyl-5-[4-(4-pyrimidin-2-yl-piperizin-1-yl)cyclohexyloxy]-2H-[1,2,4]triazin-3-one]	0.08 mg/kg	0.31 mg/kg	0.08 mg/kg	0.708 nM	< 5.0	> 10000 nM	0.31 mg/kg
Cc1ccnc(N2CCN([C@H]3CC[C@H](Oc4cnn(C)c(=O)n4)CC3)CC2)n1 [Compound 10, trans-2-Methyl-5-[4-[4-(4-methylpyrimidin-2-yl)piperazin-1-yl]cyclohexyloxy]-2H-[1,2,4]triazin-3-one]	0.08 mg/kg	0.08 mg/kg	0.02 mg/kg	0.251 nM	5.95	> 10000 nM	0.08 mg/kg
Cn1ncc(O[C@H]2CC[C@H](N3CCN(c4nccc(Cl)n4)CC3)CC2)nc1=O [Compound 12, Trans-2-Methyl-5-[4-[4-(4-Chloropyrimidin-2-Yl)Piperazin-1-Yl]Cyclohexyloxy]-2H-[1,2,4]Triazin-3-One]	0.08 mg/kg	0.08 mg/kg	0.08 mg/kg	0.288 nM	6.21	> 10000 nM	0.74 mg/kg
COc1ccnc(N2CCN([C@H]3CC[C@H](Oc4cnn(C)c(=O)n4)CC3)CC2)n1 [Compound 13, Trans-2-Methyl-5-[4-[4-(4-Methoxypyrimidin-2-Yl)Piperazin-1-yl]Cyclohexyloxy]-2H-[1,2,4]triazin-3-One]	0.31 mg/kg	0.31 mg/kg	0.08 mg/kg	0.525 nM	6.65	> 10000 nM	–
Cn1ncc(O[C@H]2CC[C@H](N3CCN(c4nccc(C(F)(F)F)n4)CC3)CC2)nc1=O [Compound 14, Trans-2-Methyl-5-[4-[4-(4-Trifluoro-Methylpyrimidin-2-Yl)Piperazin-1-Yl]Cyclohexyloxy]-2H-[1,2,4]Triazin-3-One]	0.31 mg/kg	0.31 mg/kg	0.08 mg/kg	–	–	–	–
Cn1ncc(O[C@H]2CC[C@H](N3CCN(c4ncc(F)cn4)CC3)CC2)nc1=O [Compound 15, Trans-2-Methyl-5-[4-[4-(5-Fluoropyrimidin-2-Yl)Piperazin-1-yl]Cyclohexyloxy]-2H-[1,2,4]Triazin-3-One]	1.25 mg/kg	> 2.5 mg/kg	0.31 mg/kg	–	–	–	–
O=C(NCCN1CCN(c2cccc3c2OC[C@H](CO)O3)CC1)c1ccc(F)cc1 [Flesinoxan, reference compound]	1.25 mg/kg	5 mg/kg	1.25 mg/kg	1.23 nM	6.50	89.1 nM	1.25 mg/kg

Continued, in another order:

ED50 (5-HT1A receptor [1]; [4])	ED50 (5-HT1A receptor [1]; [5])	ED50 (5-HT1A receptor [1]; [6])	Ki (5-HT1A receptor [2])	pKi α1 (α1-adrenergic receptor)	Ki (D2 dopaminergic receptor)	SMILES	ED50 [3]
1.25 mg/kg	1.25 mg/kg	0.31 mg/kg	3.72 nM	< 5.0	> 10000 nM	Cn1c(=O)cnn([C@H]2CC[C@H](N3CCN(c4ncccn4)CC3)CC2)c1=O [Compound 4, Trans-4-Methyl-2-[4-(4-Pyrimidin-2-Yl-Piperazin-1-Yl)Cyclohexyl]-2H-[1,2,4]Triazine-3,5-Dione]	1.25 mg/kg
0.08 mg/kg	0.08 mg/kg	< 0.04 mg/kg	0.603 nM	5.89	> 10000 nM	Cc1cc(C)nc(N2CCN([C@H]3CC[C@H](n4ncc(=O)n(C)c4=O)CC3)CC2)n1 [Compound 5, trans-4-Methyl-2-[4-[4-(4,6-dimethylpyrimidin-2-yl)piperizin-1-yl]cyclohexyl]-2H-[1,2,4]triazine-3,5-dione]	0.31 mg/kg
0.08 mg/kg	0.08 mg/kg	0.08 mg/kg	0.813 nM	6.10	> 10000 nM	Cc1ccnc(N2CCN([C@H]3CC[C@H](n4ncc(=O)n(C)c4=O)CC3)CC2)n1 [Compound 6, Trans-4-Methyl-2-[4-[4-(4-Methylpyrimidin-2-Yl)Piperazin-1-Yl]Cyclohexyl]-2H-[1,2,4]triazine-3,5-dione]	–
0.02 mg/kg	0.08 mg/kg	0.02 mg/kg	0.251 nM	5.72	> 10000 nM	Cc1cc(C)nc(N2CCN([C@H]3CC[C@H](Oc4cnn(C)c(=O)n4)CC3)CC2)n1 [Compound 11, Trans-2-Methyl-5-[4-[4-(4,6-Dimethyl-Pyrimidin-2-Yl)Piperazin-1-Yl]Cyclohexyloxy]-2H-[1,2,4]triazin-3-one]	0.08 mg/kg
–	–	–	0.398 nM	7.74	603 nM	Cn1nc(N[C@H]2CC[C@H](N3CCN(c4cccc(Cl)c4)CC3)CC2)c(=O)n(C)c1=O [Compound 17, trans-6-{4-[4-(3-Chlorophenyl)piperazin-1-yl]cyclohexylamino}-2,4-dimethyl-2H-[1,2,4]triazine-3,5-dione]	–
–	–	–	0.195 nM	7.86	> 10000 nM	Cn1nc(N(C)[C@H]2CC[C@H](N3CCN(c4cccc(Cl)c4)CC3)CC2)c(=O)n(C)c1=O [Compound 19, Trans-6-({4-[4-(3-Chlorophenyl)Piperazin-1-Yl]Cyclohexyl}Methylamino)-2,4-Dimethyl-2H-[1,2,4]Triazine-3,5-Dione]	–
